One may read the bioavailability as dose-corrected exposure relative to a reference, in per cent. A low value points to little systemic uptake. As a reminder, the pIC50 is −log10 of the IC50, conventionally taken in molar units. What is called pEC50 is the negative decadic logarithm of the EC50, by convention in mol/L. High values mean a small EC50, low ones a large EC50. In general, clearance refers to a measure of how efficiently the substance is removed, as volume per time. A lower clearance goes with inefficient removal. As usually defined, the inhibition in vivo is the change of the read-out against control, counted positive when it falls. A word on the half-life: it is the time in which the quantity being followed falls by half.

pEC50, pIC50: −log10 of the molar value. Where only a bound is given, the exact number is not on record here.

A short description of series [1]: Oral bioavailability in C57BL/6 mouse. The following applies: in vivo. The format is ADME, organism-based.
Series [2] has as its target Cytochrome P450 2C9 (Homo sapiens, UniProt P11712). Kind of series: Inhibition of CYP2C9. In kind it is ADME.
The target in series [3] is 11-beta-hydroxysteroid dehydrogenase 1 (Homo sapiens, UniProt P28845). Kind of series: Inhibition of human 11beta-HSD1 expressed in CHO-K1 cells assessed as conversion of [3H]cortisone to [3H]cortisol by scintillation counting. The format is cell-based.
11-beta-hydroxysteroid dehydrogenase 1 (Homo sapiens, UniProt P28845), sequence (P28845 whole entry): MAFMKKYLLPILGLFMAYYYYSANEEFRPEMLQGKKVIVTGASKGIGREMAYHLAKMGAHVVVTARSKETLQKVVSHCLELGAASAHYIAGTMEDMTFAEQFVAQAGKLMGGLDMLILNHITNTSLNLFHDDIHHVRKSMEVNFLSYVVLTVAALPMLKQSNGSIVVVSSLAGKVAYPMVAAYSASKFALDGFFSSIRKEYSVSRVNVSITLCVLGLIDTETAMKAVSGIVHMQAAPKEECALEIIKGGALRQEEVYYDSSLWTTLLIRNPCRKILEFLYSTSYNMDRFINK
For series [4], the target named is T1, Nuclear receptor subfamily 1 group I member 2 (Homo sapiens, UniProt O75469).
T1 sequence (O75469 whole entry): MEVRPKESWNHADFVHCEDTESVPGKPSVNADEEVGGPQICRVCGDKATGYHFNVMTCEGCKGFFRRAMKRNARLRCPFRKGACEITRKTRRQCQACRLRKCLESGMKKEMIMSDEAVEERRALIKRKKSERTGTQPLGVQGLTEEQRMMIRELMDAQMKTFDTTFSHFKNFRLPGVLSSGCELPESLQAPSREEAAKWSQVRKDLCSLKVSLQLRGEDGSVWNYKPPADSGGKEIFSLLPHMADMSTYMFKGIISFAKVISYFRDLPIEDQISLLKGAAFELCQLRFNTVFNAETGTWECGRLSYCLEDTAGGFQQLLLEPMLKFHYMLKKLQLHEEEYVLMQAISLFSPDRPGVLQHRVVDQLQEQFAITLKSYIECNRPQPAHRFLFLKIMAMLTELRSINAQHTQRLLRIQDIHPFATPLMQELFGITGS
Kind of series: Agonist activity at PXR. The format is functional.

Series [5] is described as follows: Blood clearance in C57BL/6 mouse. The format is ADME, organism-based.
In series [6] the target is Cytochrome P450 3A4 (Homo sapiens, UniProt P08684). Kind of series: Inhibition of CYP3A4. The format is ADME.
Cytochrome P450 3A4, sequence (P08684 whole entry): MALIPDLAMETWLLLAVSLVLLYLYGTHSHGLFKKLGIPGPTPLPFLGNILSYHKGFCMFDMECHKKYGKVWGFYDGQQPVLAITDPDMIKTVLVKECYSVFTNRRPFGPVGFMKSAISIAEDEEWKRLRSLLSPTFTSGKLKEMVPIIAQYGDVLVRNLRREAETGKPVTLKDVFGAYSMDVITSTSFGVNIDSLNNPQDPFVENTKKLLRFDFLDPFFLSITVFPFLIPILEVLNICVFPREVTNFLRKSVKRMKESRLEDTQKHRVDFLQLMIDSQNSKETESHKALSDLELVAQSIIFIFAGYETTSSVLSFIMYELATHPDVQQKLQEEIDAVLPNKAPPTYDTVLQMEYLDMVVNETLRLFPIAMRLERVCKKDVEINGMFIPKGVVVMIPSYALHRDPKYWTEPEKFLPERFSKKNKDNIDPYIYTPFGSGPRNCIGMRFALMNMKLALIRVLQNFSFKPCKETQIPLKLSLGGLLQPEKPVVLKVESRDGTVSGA
In series [7] the target is T1, Nuclear receptor subfamily 1 group I member 2. Description: Agonist activity at PXR at 10 uM. In kind it is functional.
The target of series [8] is T2, 11-beta-hydroxysteroid dehydrogenase type 2 (Homo sapiens, UniProt P80365).
T2 sequence (P80365 whole entry): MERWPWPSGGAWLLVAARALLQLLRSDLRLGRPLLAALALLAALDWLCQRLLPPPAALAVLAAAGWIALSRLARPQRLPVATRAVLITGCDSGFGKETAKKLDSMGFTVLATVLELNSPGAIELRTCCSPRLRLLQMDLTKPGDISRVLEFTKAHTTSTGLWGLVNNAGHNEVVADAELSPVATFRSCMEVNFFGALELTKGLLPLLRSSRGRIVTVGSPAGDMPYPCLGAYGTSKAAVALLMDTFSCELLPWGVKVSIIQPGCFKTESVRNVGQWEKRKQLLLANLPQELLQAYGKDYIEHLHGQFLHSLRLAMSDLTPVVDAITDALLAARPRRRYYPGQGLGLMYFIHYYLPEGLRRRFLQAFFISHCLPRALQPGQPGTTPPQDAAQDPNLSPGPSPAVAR
Description: Inhibition of human 11beta-HSD2.

In series [9] the target is Cytochrome P450 2D6 (Homo sapiens, UniProt P10635). Description: Inhibition of CYP2D6. In kind it is ADME.
Cytochrome P450 2D6, sequence (P10635 whole entry): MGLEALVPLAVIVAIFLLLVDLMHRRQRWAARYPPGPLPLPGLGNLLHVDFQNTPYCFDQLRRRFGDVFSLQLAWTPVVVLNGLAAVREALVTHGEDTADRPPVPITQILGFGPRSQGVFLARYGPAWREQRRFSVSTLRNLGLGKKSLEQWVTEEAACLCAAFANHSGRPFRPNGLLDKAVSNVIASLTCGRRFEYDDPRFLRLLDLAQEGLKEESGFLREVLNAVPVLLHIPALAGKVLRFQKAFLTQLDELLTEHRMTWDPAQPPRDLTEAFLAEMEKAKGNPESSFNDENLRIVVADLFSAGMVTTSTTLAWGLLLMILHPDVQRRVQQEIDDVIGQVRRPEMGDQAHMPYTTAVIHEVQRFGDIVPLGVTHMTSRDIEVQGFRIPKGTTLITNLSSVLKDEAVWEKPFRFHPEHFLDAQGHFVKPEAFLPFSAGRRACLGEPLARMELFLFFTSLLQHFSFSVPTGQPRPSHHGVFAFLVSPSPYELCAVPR
Series [10] relates to Mus musculus. Description: Inhibition of 11beta-HSD1 in ICR mouse assessed as conversion of [3H]cortisone to [3H]cortisol at 10 mg/kg, po after 16 hrs by scintillation counting. In kind it is functional.
For series [11], the target named is T3, 11-beta-hydroxysteroid dehydrogenase type 2 (Mus musculus, UniProt P51661).
T3 sequence (P51661 whole entry): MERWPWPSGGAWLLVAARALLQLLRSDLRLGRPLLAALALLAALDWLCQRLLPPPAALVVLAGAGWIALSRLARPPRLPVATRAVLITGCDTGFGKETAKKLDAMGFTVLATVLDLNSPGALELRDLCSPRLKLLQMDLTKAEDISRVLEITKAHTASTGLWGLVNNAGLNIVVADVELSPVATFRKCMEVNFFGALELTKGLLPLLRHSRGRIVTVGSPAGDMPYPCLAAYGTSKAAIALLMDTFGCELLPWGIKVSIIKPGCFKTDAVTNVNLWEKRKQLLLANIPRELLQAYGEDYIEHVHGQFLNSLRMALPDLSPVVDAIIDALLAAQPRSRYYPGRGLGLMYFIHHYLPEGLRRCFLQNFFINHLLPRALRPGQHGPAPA
Kind of series: Inhibition of mouse 11beta-HSD2.

Series [12] in a line: Half life in C57BL/6 mouse. The format is ADME, organism-based. The following applies: in vivo.
The subject of series [13] is Mus musculus. Kind of series: Inhibition of 11beta-HSD1 in ICR mouse assessed as conversion of [3H]cortisone to [3H]cortisol at 10 mg/kg, po after 4 hrs by scintillation counting. The format is functional.
Series [14] has as its target 11-beta-hydroxysteroid dehydrogenase 1 (Mus musculus, UniProt P50172). Description: Inhibition of mouse 11beta-HSD1 expressed in CHO-K1 cells assessed as conversion of [3H]cortisone to [3H]cortisol by scintillation counting. The format is cell-based.
Series [15] deals with Mus musculus. Kind of series: Inhibition of 11beta-HSD1 in ICR mouse assessed as conversion of [3H]cortisone to [3H]cortisol at 10 mg/kg, po after 1 hr by scintillation counting. In kind it is functional.

11-beta-hydroxysteroid dehydrogenase 1 (Mus musculus, UniProt P50172), sequence (P50172 whole entry): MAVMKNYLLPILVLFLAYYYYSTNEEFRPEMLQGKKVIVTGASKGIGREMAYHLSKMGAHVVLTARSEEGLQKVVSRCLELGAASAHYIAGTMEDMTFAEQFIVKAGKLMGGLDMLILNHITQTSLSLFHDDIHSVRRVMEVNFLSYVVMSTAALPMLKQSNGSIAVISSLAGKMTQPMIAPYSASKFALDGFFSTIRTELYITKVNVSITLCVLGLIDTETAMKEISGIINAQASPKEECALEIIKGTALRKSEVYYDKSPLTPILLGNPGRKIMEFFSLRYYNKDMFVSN
Cytochrome P450 2C9, sequence (P11712 whole entry): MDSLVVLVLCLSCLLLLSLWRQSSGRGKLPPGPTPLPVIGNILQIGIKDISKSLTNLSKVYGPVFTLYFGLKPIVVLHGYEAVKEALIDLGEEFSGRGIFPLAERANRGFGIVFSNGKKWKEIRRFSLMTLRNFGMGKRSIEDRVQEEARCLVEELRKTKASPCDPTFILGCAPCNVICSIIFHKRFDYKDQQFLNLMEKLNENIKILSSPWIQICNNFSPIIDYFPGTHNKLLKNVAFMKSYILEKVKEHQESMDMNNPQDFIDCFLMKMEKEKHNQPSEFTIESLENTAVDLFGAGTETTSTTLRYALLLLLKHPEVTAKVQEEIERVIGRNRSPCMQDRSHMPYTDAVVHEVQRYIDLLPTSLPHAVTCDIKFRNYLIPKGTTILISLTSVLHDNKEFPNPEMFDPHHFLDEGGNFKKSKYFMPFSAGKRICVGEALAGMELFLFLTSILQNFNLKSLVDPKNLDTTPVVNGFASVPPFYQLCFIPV

`Cn1c(-c2ccc(-c3cnccn3)cc2)nnc1C1(c2ccc(Cl)cc2)CCC1`: the bioavailability in series [1] stood at 30%. Further, the negative logarithm of the IC50 (pIC50) in series [2] is 4.89; in series [3], 8.64; in series [6] it was 5.00; in [8] it was below 5.40; in [9] it was 4.80; in series [11], below 5.40. Also, the pIC50 in series [14] was above 9.00. This molecule gave a pEC50 in [4] below 4.52. Moreover, the clearance in series [5] was 54 mL/min/kg. Moreover, the Activity in [7] was determined as 23%. Also, the results for the inhibition in vivo at 10 mg/kg in series [10] and in series [13] were 79% and 93%, respectively. The same molecule showed a half-life in [12] of 0.7 h.
As for `C1CCCn2c(nnc2C23CC4CC(CC(C4)C2)C3)CC1`, the pIC50 was 8.11 in series [3], below 5.40 in [8], below 5.40 in series [11] and 7.01 in series [14]. Besides, the inhibition in vivo at 10 mg/kg came to 31% in [15] and 21% in series [13].
With `Cn1c(-c2ccc(-c3cnccn3)cc2Cl)nnc1C1(c2ccc(Cl)cc2)CC(F)C1` (centres undefined), in series [1], the bioavailability is 96%. Further, the pIC50 was 4.59 in [2]; 8.26 in [3]; 4.44 in series [6]; below 5.40 in [8]; 4.60 in series [9]; below 5.40 in [11]. The pIC50 in series [14] is 8.64. This molecule also showed a pEC50 in series [4] below 4.52. Further, the clearance in series [5] turned out to be 5 mL/min/kg. In series [7], the Activity amounted to 23%. Also, the inhibition in vivo at 10 mg/kg in series [10] was found to be 80%; in series [13], 95%. For the same molecule, the half-life in series [12] was 6.8 h.

The values above are taken from ChEMBL document CHEMBL1759971, “Substituted phenyl triazoles as selective inhibitors of 11β-Hydroxysteroid Dehydrogenase Type 1” (Bioorg Med Chem Lett, 2011).
